Experimental data as given in US20030013660A1, “Dioxolane analogs for improved inter-cellular delivery” (Shire BioChem Inc., priority 2000, published 2003).
Where two headings read alike, the source gives them in different places.

Tests used:
Test in all cases: 3H-TdR incorporation at 72 hr (24 hr drug exposure, wash, 48 hr)
H-460 = format: cell-based, Human; details: Homo sapiens, NCI-H460, read-out: IC50 in μM (3H-TdR incorporation at 72 hr) H-460 24 h, H-460 Human Lung Carcinoma, 72 hr assay
Method: (§1) Exposition of 24 hr to drug, wash, incubated for another 48 hr (total of 72 hr assay)
(§2) (3H-Thymidine Incorporation Assay)

MCF-7 = format: cell-based, Human; details: Homo sapiens, MCF7, read-out: IC50 in μM (3H-TdR incorporation at 72 hr) MCF-7 24 h, MCF-7 Human Breast Carcinoma, 72 hr assay
Method: as §1, §2

SF-268 = format: cell-based, Human
Method: as §1, §2

CCRF-CEM = format: cell-based; details: Homo sapiens, CCRF-CEM, read-out: IC50 in μM (3H-TdR incorporation at 72 hr) CCRF-CEM 24 h, CCRF-CEM T-cell Leukemia, 72 hr assay
Method: as §1, §2

CEM/dCK- = format: cell-based; details: for IC50: Homo sapiens, CCRF-CEM, read-out: IC50 in μM (3H-TdR incorporation at 72 hr) CEM/dCK- 24 h, CCRF-CEM deoxycytidine kinase-deficient, 24 h drug exposure, 72 hr assay; for Factor* (Resistance Factor = Ratio of dCK- on Wild-type CCRF-CEM): ratio of IC50 CEM/dCK- to IC50 CCRF-CEM
Method: as §1, §2

[1] = Homo sapiens, SF-268, read-out: IC50 in μM (3H-TdR incorporation at 72 hr) SF-268 24 h, SF-268 Human Central Nervous System Tumor, 24 h drug exposure, 72 hr assay

Row | SMILES | IC50 (H-460) | IC50 (MCF-7) | IC50 (SF-268; [1]) | IC50 (CCRF-CEM) | IC50 (CEM/dCK-) | Factor* (Resistance Factor = Ratio of dCK- on Wild-type CCRF-CEM) (CEM/dCK-) | IC50 (SF-268)
1 | COC(OC)(OC)OC[C@H]1OC[C@@H](n2ccc(N)nc2=O)O1 [Compound 177, 4-AMINO-1-(2- TRIMETHOXYMETHOXYMETHYL -[1,3]DIOXOLAN-4-YL)- 1H-PYRIMIDIN-2-ONE] | 0.19 µM | 0.22 µM | 0.92 µM | 0.095 µM | > 100 µM | >1052 | –
2 | CCOC[C@H]1OC[C@@H](n2ccc(N)nc2=O)O1 [Compound 178, (S,S)-4-AMINO-1-(2′- ETHOXYMETHYL- [1,3]DIOXOLAN-4′-YL)- 1H-PYRIMIDIN-2-ONE] | 88 µM | 5.8 µM | 41 µM | 25 µM | > 100 µM | >4 | –
3 | C=CCOC[C@H]1OC[C@@H](n2ccc(N)nc2=O)O1 [Compound 179, (S,S)-1-(2′- ALLYLOXYMETHYL- [1,3]DIOXOLAN-4′-YL)-4- AMINO-1H-PYRIMIDIN-2- ONE] | 1.7 µM | 2.8 µM | 0.56 µM | 2.4 µM | > 100 µM | >42 | –
4 | O=C(Nc1ccn([C@@H]2CO[C@H](CO)O2)c(=O)n1)OCc1ccc([N+](=O)[O-])cc1 [Compound 182, [1-(2-HYDROXYMETHYL- [1,3]DIOXOLAN-4-YL)-2- OXO-1,2-DIHYDRO- PYRIMIDIN-4-YL]- CARBAMIC ACID 4-NITRO- BENZYL ESTER] | 0.13 µM | 0.22 µM | 0.21 µM | 0.047 µM | > 100 µM | >2100 | –
5 | Cl.Nc1ccn([C@@H]2CO[C@H](COC(=O)OCc3ccc([N+](=O)[O-])cc3)O2)c(=O)n1 [Compound 183, CARBONIC ACID 4-(4- AMINO-2-OXO-2H- PYRIMIDIN-1-YL)- [1,3]DIOXOLAN-2- YLMETHYL ESTER 4-NITRO- BENZYL ESTER HYDROCHLORIDE SALT] | 0.037 µM | 0.038 µM | 0.12 µM | 0.018 µM | 45 µM | 2,500 | –
6 | Nc1ccn([C@@H]2CO[C@H](COC3(c4ccccc4)OC4OC(COC(=O)c5ccccc5)C(OC(=O)c5ccccc5)C(OC(=O)c5ccccc5)C4O3)O2)c(=O)n1 (stereo partly drawn) [Compound 184, 3,4,6-TRI-O-BENZOYL- 1,2-O-(1-(4-AMINO-2- OXO-2H-PYRIMIDIN-1-YL)- [1,3]DIOXOLAN-2- YLMETHYLOXY)-BENZYL)- □^˜D-GLUCOPYRANOSe] | 0.94 µM | 0.92 µM | 1.1 µM | 0.81 µM | 40 µM | 49 | –
7 | O=c1nc(NS(=O)(=O)c2ccc([N+](=O)[O-])cc2[N+](=O)[O-])ccn1[C@@H]1CO[C@H](CO)O1 [Compound 188, N-[1-(2-HYDROXYMETHYL- [1,3]DIOXOLAN-4-YL)-2- OXO-1,2-DIHYDRO- […]-4-YL]-2,4- DINITRO- BENZENESULFONAMIDE] | 0.097 µM | 3 µM | – | 0.79 µM | > 100 µM | – | 2.4 µM
8 | CC(C)(C)OC(=O)NCCCCCC(=O)Nc1ccn([C@@H]2CO[C@H](COC(=O)CCCCCNC(=O)OC(C)(C)C)O2)c(=O)n1 [Compound 192, 6-TERT!- BUTOXYCARBONYLAMINO- HEXANOIC ACID 4-[4-(6- TERT- BUTOXYCARBONYLAMINO- HEXANOYLAMINO)-2-OXO- 2H-PYRIMIDIN-1-YL]- [1,3]DIOXOLAN-2-YL METHYL ESTER] | 0.29 µM | 0.0016 µM | 0.4 µM | 0.0084 µM | 48 µM | 5,714 | –
9 | CC(C)(C)OC(=O)NCCCCCC(=O)OC[C@H]1OC[C@@H](n2ccc(N)nc2=O)O1 [Compound 194, 6-TERT!- BUTOXYCARBONYLAMINO- HEXANOIC ACID 4-(4- AMINO-2-OXO-2H- PYRIMIDIN-1-YL)- [1,3]DIOXOLAN-2- YLMETHYL ESTER] | 0.011 µM | 0.004 µM | 0.041 µM | 0.0024 µM | 10 µM | 4167 | –

Continued, in another order:

Row | IC50 (H-460) | IC50 (MCF-7) | IC50 (SF-268; [1]) | IC50 (CCRF-CEM) | IC50 (CEM/dCK-) | SMILES | Factor* (Resistance Factor = Ratio of dCK- on Wild-type CCRF-CEM) (CEM/dCK-) | IC50 (SF-268)
10 | 0.64 µM | 0.16 µM | 2 µM | 0.059 µM | > 100 µM | CC(C)(C)OC(=O)NCCCCCC(=O)Nc1ccn([C@@H]2CO[C@H](CO)O2)c(=O)n1 [Compound 193, {5-[1-(2-HYDROXYMETHYL- [1,3]DIOXOLAN-4-YL)-2- OXO-1,2-DIHYDRO- PYRIMIDIN-4- YLCARBAMOYL]-PENTYL}- CARBAMIC ACID TERT- BUTYL ESTER] | >1695 | –
11 | 1.1 µM | 1.9 µM | 1.5 µM | 0.064 µM | > 100 µM | COc1ccc(C(OC)(OC)OC[C@H]2OC[C@@H](n3ccc(N)nc3=O)O2)cc1 [Compound 195, 4-AMINO-1-{2- [DIMETHOXY-(4-METHOXY- PHENYL)-METHOXYMETHYL]- [1,3]DIOXOLAN-4-YL}- 1#H!-PYRIMIDIN-2-ONE] | >1563 | –
12 | 0.033 µM | 0.21 µM | 0.0078 µM | 0.0094 µM | > 100 µM | CCOC(OCC)(OCC)OC[C@H]1OC[C@@H](n2ccc(N)nc2=O)O1 [Compound 199, 4-Amino-1-(2-triethoxymethoxymethyl-[1,3]dioxolan-4-yl)-1H-pyrimidin-2-one] | >10638 | –
13 | 0.3 µM | 1.1 µM | 0.12 µM | 0.31 µM | 72 µM | COC(OC)(OC[C@H]1OC[C@@H](n2ccc(N)nc2=O)O1)c1ccc(C)cc1 [Compound 200, 4-AMINO-1-[2- (DIMETHOXY-#P!-TOLYL- METHOXYMETHYL)- [1,3]DIOXOLAN-4-YL]- 1#H!-PYRIMIDIN-2-ONE] | 232 | –
14 | 17 µM | 18 µM | 7.3 µM | 14 µM | > 100 µM | CCOC(=O)/C=C/OC[C@H]1OC[C@@H](n2ccc(N)nc2=O)O1 [Compound 201, 3-[4-(4-AMINO-2-OXO-2H- PYRIMIDIN-1-YL)- [1,3]DIOXOLAN-2-YL METHOXY]-ACRYLIC ACID ETHYL ESTER] | >7 | –
15 | 0.28 µM | 0.9 µM | 0.1 µM | 0.26 µM | > 100 µM | Nc1ccn([C@@H]2CO[C@H](COC(=S)Sc3ccccc3)O2)c(=O)n1 [Compound 205, DITHIOCARBONIC ACID O- [4-(4-AMINO-2-OXO-2H- PYRIMIDIN-1-YL)- [1,3]DIOXOLAN-2-YL METHYL] ESTER S-PHENYL ESTER] | >385 | –
16 | 0.012 µM | 0.056 µM | 0.043 µM | 0.009 µM | 80 µM | Nc1ccn([C@@H]2CO[C@H](COC(=O)c3ccccc3Cl)O2)c(=O)n1 [Compound 206, 2-CHLORO-BENZOIC ACID 4-(4-AMINO-2-OXO-2#H!- PYRIMIDIN-1-YL)- [1,3]DIOXOLAN-2-YL METHYL ESTER] | 8,889 | –
17 | 0.0034 µM | 0.029 µM | 0.042 µM | 0.0035 µM | > 100 µM | Nc1ccn([C@@H]2CO[C@H](COC(=O)c3ccccc3Cc3ccccc3)O2)c(=O)n1 [Compound 220, BIPHENYL-2-CARBOXYLIC ACID 4-(4-AMINO-2-OXO- 2H-PYRIMIDIN-1-YL)- [1,3]DIOXOLAN-2-YL METHYL ESTER] | >28571 | –
18 | 11 µM | 11 µM | 43 µM | 0.88 µM | > 100 µM | O=C(Nc1ccn([C@@H]2CO[C@H](CO)O2)c(=O)n1)C1(c2ccccc2)CCCCC1 [Compound 225, 1-PHENYL- CYCLOHEXANECARBOXYLIC ACID [1-(2- HYDROXYMETHYL- [1,3]DIOXOLAN-4-YL)-2- OXO-1,2-DIHYDRO- PYRIMIDIN-4-YL]-AMIDE] | >113 | –
19 | 0.84 µM | 0.012 µM | 3 µM | 0.043 µM | 22 µM | CC(C)(CCCCCCc1ccccc1)C(=O)Nc1ccn([C@@H]2CO[C@H](CO)O2)c(=O)n1 [Compound 227, 2,2-DIMETHYL-8-PHENYL- OCTANOIC ACID [1-(2- HYDROXYMETHYL- [1,3]DIOXOLAN-4-YL)-2- OXO-1,2-DIHYDRO- PYRIMIDIN-4-YL]-AMIDE] | 512 | –
20 | 0.68 µM | 1.5 µM | 5.3 µM | 0.44 µM | > 100 µM | C/C(=N\c1ccn([C@@H]2CO[C@H](CO)O2)c(=O)n1)N(C)C [Compound 228, N′-[1-(2-HYDROXYMETHYL- [1,3]DIOXOLAN-4-YL)-2- OXO-1,2-DIHYDRO- PYRIMIDIN-4-YL]-N,N- DIMETHYL-ACETAMIDINE] | >227 | –
